Measured values from US20050095240A1, “NaCT as a target for lifespan expansion and weight reduction” (Medical College of Georgia Research, priority 2002, published 2005).
Values joined by “and” are separate entries in the source; they are usually repeats but may differ in a detail not shown here. Equal values may be shown once. Read-outs that look alike come from different tables or passages of the source.

Key:
drIndy = drIndy (Drosophila melanogaster, UniProt Q9VVT2)
human NaCT = human NaCT (Homo sapiens, UniProt Q86YT5); experiment: Uptake via human NaCT expressed in HRPE cells; format: cell-based; details: for Citrate Uptake, cDNA / Citrate Uptake, cDNA-specific: pH 7.5
human NaCT, sequence (Q86YT5 whole entry): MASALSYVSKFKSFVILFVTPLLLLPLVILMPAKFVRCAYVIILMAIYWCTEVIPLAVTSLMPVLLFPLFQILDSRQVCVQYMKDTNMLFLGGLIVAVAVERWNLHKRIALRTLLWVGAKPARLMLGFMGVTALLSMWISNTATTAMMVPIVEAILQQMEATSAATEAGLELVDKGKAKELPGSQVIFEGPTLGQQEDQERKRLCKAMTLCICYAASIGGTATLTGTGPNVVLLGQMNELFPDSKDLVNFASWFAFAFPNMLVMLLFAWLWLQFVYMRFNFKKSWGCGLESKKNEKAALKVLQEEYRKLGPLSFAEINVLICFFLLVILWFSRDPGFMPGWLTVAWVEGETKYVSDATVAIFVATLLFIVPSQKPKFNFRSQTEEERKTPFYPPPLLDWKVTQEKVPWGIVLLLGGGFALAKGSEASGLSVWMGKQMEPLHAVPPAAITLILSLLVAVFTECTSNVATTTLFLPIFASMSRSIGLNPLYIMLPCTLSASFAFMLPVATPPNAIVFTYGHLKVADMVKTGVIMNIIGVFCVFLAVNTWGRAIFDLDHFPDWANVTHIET

rat NaCT = target: T1, rat NaCT (Rattus norvegicus, UniProt Q8CJ44); experiment: Uptake via rat NaCT expressed in HRPE cells; format: cell-based; details: for Citrate Uptake, cDNA-specific / Citrate Uptake, cDNA: pH 7.5
T1 sequence (Q8CJ44 1-572): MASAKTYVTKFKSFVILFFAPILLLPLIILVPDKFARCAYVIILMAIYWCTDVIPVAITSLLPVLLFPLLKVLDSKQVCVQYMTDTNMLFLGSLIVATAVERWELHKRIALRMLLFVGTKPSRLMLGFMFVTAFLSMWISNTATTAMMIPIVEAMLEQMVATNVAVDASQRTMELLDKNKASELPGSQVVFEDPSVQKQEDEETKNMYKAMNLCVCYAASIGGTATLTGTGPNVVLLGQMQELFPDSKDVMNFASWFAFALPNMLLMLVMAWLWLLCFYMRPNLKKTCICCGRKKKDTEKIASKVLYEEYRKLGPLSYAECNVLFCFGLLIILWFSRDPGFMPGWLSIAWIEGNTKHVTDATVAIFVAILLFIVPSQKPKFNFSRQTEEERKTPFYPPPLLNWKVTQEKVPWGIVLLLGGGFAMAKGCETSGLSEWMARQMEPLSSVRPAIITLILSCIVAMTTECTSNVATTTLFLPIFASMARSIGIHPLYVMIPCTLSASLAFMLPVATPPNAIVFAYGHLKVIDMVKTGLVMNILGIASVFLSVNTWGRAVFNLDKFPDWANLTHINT

ceNaCT = target: T2, ceNaCT (Caenorhabditis elegans, UniProt P32739, I91S/L182M); experiment: Uptake via ceNaCT expressed in HRPE cells
T2 sequence (P32739 1-551 I91S/L182M): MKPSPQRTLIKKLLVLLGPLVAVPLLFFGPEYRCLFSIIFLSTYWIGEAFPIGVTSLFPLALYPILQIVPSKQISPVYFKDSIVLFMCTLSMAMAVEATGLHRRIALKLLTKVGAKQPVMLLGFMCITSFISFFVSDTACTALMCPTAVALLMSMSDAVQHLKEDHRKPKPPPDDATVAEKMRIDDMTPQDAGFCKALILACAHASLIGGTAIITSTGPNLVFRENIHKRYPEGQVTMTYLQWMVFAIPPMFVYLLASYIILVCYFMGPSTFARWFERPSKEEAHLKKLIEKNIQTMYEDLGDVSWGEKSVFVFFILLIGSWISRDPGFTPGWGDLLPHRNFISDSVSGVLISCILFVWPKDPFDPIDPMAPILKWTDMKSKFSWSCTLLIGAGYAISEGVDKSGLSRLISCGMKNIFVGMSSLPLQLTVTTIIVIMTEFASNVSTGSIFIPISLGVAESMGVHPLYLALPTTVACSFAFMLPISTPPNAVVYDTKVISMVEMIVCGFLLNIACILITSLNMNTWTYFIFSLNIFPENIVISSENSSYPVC

mouse NaCT = target: T3, mouse NaCT (Mus musculus, UniProt Q67BT3); experiment: Transport via mouse NaCT expressed in HRPE cells; format: cell-based
T3 sequence (Q67BT3 1-572): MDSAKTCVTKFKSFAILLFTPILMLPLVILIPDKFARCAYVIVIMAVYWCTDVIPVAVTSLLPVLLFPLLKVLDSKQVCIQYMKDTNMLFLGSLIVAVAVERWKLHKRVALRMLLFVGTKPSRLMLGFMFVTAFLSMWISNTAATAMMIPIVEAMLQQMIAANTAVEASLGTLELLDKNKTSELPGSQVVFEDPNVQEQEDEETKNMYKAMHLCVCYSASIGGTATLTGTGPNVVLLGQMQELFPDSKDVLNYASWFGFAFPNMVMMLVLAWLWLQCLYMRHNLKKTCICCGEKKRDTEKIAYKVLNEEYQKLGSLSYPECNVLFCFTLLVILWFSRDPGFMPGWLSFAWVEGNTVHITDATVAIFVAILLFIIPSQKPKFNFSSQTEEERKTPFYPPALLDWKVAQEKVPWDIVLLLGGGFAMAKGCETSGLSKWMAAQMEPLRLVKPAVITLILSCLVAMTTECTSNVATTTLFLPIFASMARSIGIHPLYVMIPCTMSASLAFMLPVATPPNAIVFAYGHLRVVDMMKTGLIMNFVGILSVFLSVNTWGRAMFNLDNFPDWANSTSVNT

[1] = citrate 35 μM, drIndy cDNA-transfected HRPE cells, indicated salt
[2] = [14C]-citrate 20 μM, human NaCT cDNA-transfected HRPE, indicated salt
[3] = [14C]-citrate 20 μM, indicated salt
[4] = [14C]citrate 7 μM, indicated salt
[5] = [14C]citrate 7 μM, rat NaCT cDNA-transfected HRPE, indicated salt
[6] = relative to NaCl, [14C]citrate 7 μM

drIndy, sequence (Q9VVT2 19-590): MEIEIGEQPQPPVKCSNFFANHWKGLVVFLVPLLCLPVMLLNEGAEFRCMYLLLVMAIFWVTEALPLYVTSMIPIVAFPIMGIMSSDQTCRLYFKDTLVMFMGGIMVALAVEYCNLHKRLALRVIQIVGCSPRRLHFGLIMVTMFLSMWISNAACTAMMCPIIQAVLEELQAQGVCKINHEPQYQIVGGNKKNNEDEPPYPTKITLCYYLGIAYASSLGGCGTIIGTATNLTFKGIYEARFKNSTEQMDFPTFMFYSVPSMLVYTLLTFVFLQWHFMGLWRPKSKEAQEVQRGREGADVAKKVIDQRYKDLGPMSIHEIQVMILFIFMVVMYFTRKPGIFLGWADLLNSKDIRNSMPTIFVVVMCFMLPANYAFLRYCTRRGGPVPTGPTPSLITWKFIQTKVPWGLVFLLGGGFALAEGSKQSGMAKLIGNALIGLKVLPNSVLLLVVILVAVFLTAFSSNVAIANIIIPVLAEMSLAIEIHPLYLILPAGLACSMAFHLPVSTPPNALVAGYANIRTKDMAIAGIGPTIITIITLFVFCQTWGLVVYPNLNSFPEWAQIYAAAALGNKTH

In the case of `[Cl-].[Na+]` [NaCl], the “Citrate uptake, drIndy” value (drIndy; [1]) is reported as 57.4 ± 3.3 pmol/10^6 cells per min, the “Fold Increase of citrate uptake (drIndy vs vector)” value (from here on “Fold Increase of citrate uptake”) (drIndy; citrate 35 μM, indicated salt) is reported as 26.1 fold and the “Citrate Uptake, cDNA” value (human NaCT; [2]) is reported as 59.9 ± 3.9 pmol/10^6 cells/min. The “Citrate Uptake, cDNA-specific” value (human NaCT; [3]) was 58.4 ± 3.9 pmol/10^6 cells/min, the “Citrate Uptake, cDNA-specific, %” value (human NaCT; relative to NaCl) was 100% and the “Citrate Uptake, cDNA-specific” value (rat NaCT; [4]) was 38.0 ± 3.3 pmol/10^6 cells/min. The “Citrate Uptake, cDNA” value (rat NaCT; [5]) was 38.8 ± 3.3 pmol/10^6 cells/min and the “Citrate Uptake, cDNA-specific, %” value (rat NaCT; [6]) was 100%.

For `O=C(O)/C=C/C(=O)O` [Fumarate], the “Competition with [^14C]citrate for ceNaCT-mediated uptake” value (ceNaCT) was “inhibited markedly”, the “% Control of cDNA-specific [^3H]succinate uptake” value (from here on “% Control of cDNA-specific”) (drIndy) was 6% and the “cDNA-specific [^3H] succinate uptake” value (drIndy; pH 7.5) was 4.8 ± 0.3 fmol/106 cells per min. The “[^3H]-Succinate transport (NaCT-specific)” value (mouse NaCT) was 0.007 ± 0.002 pmol/10^6 cells/min, the “[^3H]-Succinate transport, %” value (mouse NaCT) was 5% and the “[^14C]-Citrate transport (NaCT-specific)” value (mouse NaCT) was 1.6 ± 0.4 pmol/10^6 cells/min. The “[^14C]-Citrate transport, %” value (mouse NaCT) was 4%, the “[^14C]-Citrate Uptake (cDNA-specific)” value (human NaCT) was 43.7 ± 5.0 pmol/10^6 cells/min and the “[^14C]-Citrate Uptake, %” value (human NaCT) was 92%. For the same molecule, the IC50 (human NaCT; read-out: IC50 for inhibition of human NaCT-mediated [^14C]-citrate uptake) was 12.6 ± 5 mM, the “[^14C]Citrate uptake (cDNA-specific)” value (rat NaCT) was 17.7 ± 1.4 Pmol/10^6 cells/min and the “[^14C]Citrate uptake, %” value (rat NaCT) was 16%.

In the case of `[Na+]` [Na^+], the “Hill coefficient (nH) of Na+ activation” value (mouse NaCT) is reported as 3.3±0.6 and 2.0±0.3, the EC50 (mouse NaCT; read-out: K0.5 for Na+ (half-maximal activation of the transport process)) is reported as 72 ± 6 mM and the “Hill coefficient (nH) of Na+ dependence of citrate uptake” value (rat NaCT) is reported as 3.3±0.3.

In the case of `CC(=O)N[C@@H](CC(=O)O)C(=O)O` [N-Acetylaspartate], the “% Control of cDNA-specific” value (drIndy; [3H]succinate 40 nM, inhibitor 2.5 mM) is reported as 43% and the “cDNA-specific [^3H] succinate uptake” value (drIndy; [3H]succinate 40 nM, inhibitor 2.5 mM, NaCl buffer pH 7.5) is reported as 58.4 ± 1.5 fmol/106 cells per min.

In the case of `O=C(O)CCC(=O)C(=O)O` [2-Oxoglutarate], the “Competition with [^14C]citrate for ceNaCT-mediated uptake” value (ceNaCT) is reported as “inhibited markedly”, the “% Control of cDNA-specific” value (drIndy) is reported as 5% and the “cDNA-specific [^3H] succinate uptake” value (drIndy; pH 7.5) is reported as 3.0 ± 1.0 fmol/106 cells per min.

With `[Cl-].[K+]` [KCl] the “Citrate uptake, drIndy” value (drIndy) was 33.8 ± 2.7 pmol/10^6 cells per min, the “Fold Increase of citrate uptake” value (drIndy) was 19.9 fold and the “Succinate uptake, drIndy” value (drIndy; pH 7.5) was 111.0 ± 8.5 fmol/10^6 cells per min. The “Citrate Uptake, cDNA-specific, %” value (human NaCT) was 0%, the “Citrate Uptake, cDNA” value (human NaCT) was 1.1 ± 0.1 pmol/10^6 cells/min and the “Citrate Uptake, cDNA-specific” value (human NaCT) was −0.1 ± 0.1^ pmol/10^6 cells/min. For the same molecule, the “Citrate Uptake, cDNA-specific, %” value (rat NaCT) was 0%, the “Citrate Uptake, cDNA” value (rat NaCT) was 0.6 ± 0.1 pmol/10^6 cells/min and the “Citrate Uptake, cDNA-specific” value (rat NaCT) was 0.1 ± 0.1 pmol/10^6 cells/min.

In the case of `OC[C@@H](O)[C@@H](O)[C@H](O)[C@H](O)CO` [Mannitol], the “Citrate uptake, drIndy” value (drIndy; [1]) is reported as 26.3 ± 0.3 pmol/10^6 cells per min, the “Fold Increase of citrate uptake” value (drIndy; citrate 35 μM, indicated salt) is reported as 15.5 fold and the “Citrate Uptake, cDNA-specific” value (rat NaCT; [4]) is reported as 0.1 ± 0.1 pmol/10^6 cells/min. The “Citrate Uptake, cDNA” value (rat NaCT; [5]) was 0.7 ± 0.1 pmol/10^6 cells/min and the “Citrate Uptake, cDNA-specific, %” value (rat NaCT; [6]) was 0%.

For `CNC[C@H](O)[C@@H](O)[C@H](O)[C@H](O)CO.Cl` [NMDG chloride, N-methyl-D-glucamine chloride], the “Citrate uptake, drIndy” value (drIndy; [1]) was 25.4 ± 1.8 pmol/10^6 cells per min, the “Fold Increase of citrate uptake” value (drIndy; citrate 35 μM, indicated salt) was 13.4 fold and the “Citrate Uptake, cDNA” value (human NaCT; [2]) was 1.3 ± 0.2 pmol/10^6 cells/min. For the same molecule, the “Citrate Uptake, cDNA-specific” value (human NaCT; [3]) was −0.1 ± 0.2^ pmol/10^6 cells/min, the “Citrate Uptake, cDNA-specific, %” value (human NaCT; relative to NaCl) was 0% and the “Citrate Uptake, cDNA-specific” value (rat NaCT; [4]) was 0.4 ± 0.3 pmol/10^6 cells/min. The “Citrate Uptake, cDNA” value (rat NaCT; [5]) was 1.6 ± 0.3 pmol/10^6 cells/min and the “Citrate Uptake, cDNA-specific, %” value (rat NaCT; [6]) was 1%.
